Test results reported in article PMC10929621, “An Engineered Biarylitide Cross-Linking P450 from RiPP Biosynthesis Generates Alternative Cyclic Peptides” (Organic Letters, 2024).

Test system: Blt-M1 (P450Blt A231V-H234L)
Assay: Deuterium loss on cyclization by Blt-M1
Type: biochemical, Micromonospora sp. MW-13
Settings: deuterium at C2 of His-3, HRMS
Method: Finally, we sought to clarify the nature of the cross-link within 5 formed by Blt-M1 as no equivalent cross-linked tripeptide natural product has been identified. Scaled enzymatic cyclization of Nle-2 (N-terminal Met residue was replaced with norleucine (Nle) to avoid sulfoxidation due to the release of reactive oxygen intermediates during catalysis) and purification of Nle-5 were then performed. […] We turned to the use of peptide deuteration to resolve this cross-link, which based on WT biarylitide reactivity could be either C–C or C–N. This required synthesis and turnover of a deuterated version of Nle-2 with deuterium at C2 of the His-3 residue (Nle-2^3d).[17] […]
The UV-visible spectra of the P450 enzymes were obtained using a Jasco V-750 spectrophotometer as has been previously reported.1 The spectra were measured until it reached a stable peak. CO difference spectra were obtained using a Jasco V-750 spectrophotometer at 30 °C as has been previously described.1 The UV-vis spectra were measured between 390–600 nm every 5 mins until the spectra was stable.1, 4 Substrate interaction with the P450s was measured using UV-visible absorbance spectroscopy carried out on a Jasco V-750 spectrophotometer according to previously reported protocol.1 Amplitudes of the different spectra were extrapolated (ΔA = Amax - Amin) and plotted against the substrate concentration. […]

## NleRHLY (sidechain bridge or staple) [Nle-5, cross-linked peptide from enzymatic cyclization of Nle-2 by Blt-M1]
  loss of deuterium upon cyclization: loss of deuterium
